Assay results: patent US20160039825A1 (BIOGEN MA INC., priority 2013, published 2016)

Biological target: T1, Human ATX protein (Homo sapiens, UniProt Q13822)
T1 construct: made in house
Assay: Autotaxin (ATX) assay, FRET with FS-3 substrate
Assay type: biochemical
Details: upper bound bins (no greater than 100, 250 or 500 nM); FS-3 2 μM, ATX 1.0 μg/mL
Text: ATX (Autotaxin) is a 125 KDa glycoprotein with lysophospholipase D (LPLD) activity that generates the bioactive lipid lysophosphatidic acid (LPA) from lysophosphatidylcholine (LPC). The ATX biochemical assay utilizes a FRET (fluorescence resonance energy transfer) technology platform. The fluorescence signal of FRET substrate FS-3 is quenched due to intra-molecular FRET of a fluorophore to a non-fluorescing quencher (Ferguson, C. G., et al., Org Lett. 2006 May 11; 8(10): 2023-2026, which is incorporated by reference in its entirety). ATX catalyzes the hydrolysis of the substrate which separates the dabsyl quencher from the fluorescein reporter, which becomes fluorescent. The reaction is monitored by a SpectraMax M5 (Molecular Devices, Sunnyvale, Calif.) with at excitation wavelength 485 nm and emission wavelength […].
Fatty acid free-BSA (Sigma A8806): 10 mg/mL in H2O, stored at 4° C.
2×ATX assay buffer: 100 mM Tris, 280 mM NaCl, 10 mM KCl, 2 mM CaCl2, 2 mM MgCl2, pH 7.4.
Human ATX protein: expressed and purified in house. Stored at −80° C.
Substrate FS-3 (Echelon, L-2000): 100 μg in 77.74 μL H2O (1 mM stock), stored at −20° C.
384-well flat bottom plates—Corning #3575.
Compound dilution—All compounds were provided at 10 mM in 100% DMSO. In the first well, 2 μL of 10 mM compound was added to 78 μL of DMSO (1:40 dilution). In subsequent wells 3-fold dilution (total 10 dilutions) were performed.
1×ATX assay buffer was made up with a final concentration of 1 mg/mL fatty acid free-BSA using 2×ATX assay buffer, 10 mg/ml fatty acid free-BSA and ddH2O.
ATX protein was diluted with 1×ATX assay buffer to a concentration of 1.32 μg/mL (1.32×). 38 μL was added per well to the assay plate. The final concentration of ATX in the reaction as 1.0 μg/mL.
2 μL per well of compounds was transferred to provide the desired concentration. The plate was centrifuged, then incubated at room temperature for 30 minutes on the shaker.
FS-3 was diluted with 1×ATX assay buffer to a concentration of FS-3 of 10 μM (5×). Then, 10 μL was added per well to the assay plate. The final concentration of FS-3 in the reaction was 2 μM. The plate was centrifuged. The plate was kept shaking at room temperature for 2 hours. Because FS-3 substrate is light sensitive, plates were kept covered and protected from light.
Fluorescence was measured using SpectraMax M5 (excitation at 485 nm/emission at 538 nm, top read).

SMILES	IC50 [nM]
O=C(O)c1cc2n(n1)CCCN(C(=O)CCc1cc(C(F)(F)F)cc(C(F)(F)F)c1)C2 [Example 82, 5-(3-(3,5-bis(Trifluoromethyl)phenyl)propanoyl)-5,6,7,8-tetrahydro-4H-pyrazolo[1,5-a][1,4]diazepine-2-carboxylic acid]	≤ 100
O=C(O)c1cc2n(n1)CCCN(C(=O)CCc1cc(Cl)cc(Cl)c1)C2 [Example 83, 5-(3-(3,5-Dichlorophenyl)propanoyl)-5,6,7,8-tetrahydro-4H-pyrazolo[1,5-a][1,4]diazepine-2-carboxylic acid]	≤ 100
O=C(N[C@H]1CC[C@@H](C(=O)O)CC1)c1cc2n(n1)CCCN(C(=O)OCc1cc(Cl)cc(Cl)c1)C2 [Example 85, (cis)-4-(5-(((3,5-Dichlorobenzyl)oxy)carbonyl)-5,6,7,8-tetrahydro-4H-pyrazolo[1,5-a][1,4]diazepine-2-carboxamido)cyclohexanecarboxylic acid]	≤ 100
O=C(N[C@H]1CC[C@H](C(=O)O)CC1)c1cc2n(n1)CCCN(C(=O)OCc1cc(Cl)cc(Cl)c1)C2 [Example 86, (trans)-4-(5-(((3,5-Dichlorobenzyl)oxy)carbonyl)-5,6,7,8-tetrahydro-4H-pyrazolo[1,5-a][1,4]diazepine-2-carboxamido)cyclohexanecarboxylic acid]	≤ 250
O=C(O)C1CCN(C(=O)c2cc3n(n2)CCCN(C(=O)OCc2cc(Cl)cc(Cl)c2)C3)CC1 [Example 87, 1-(5-(((3,5-Dichlorobenzyl)oxy)carbonyl)-5,6,7,8-tetrahydro-4H-pyrazolo[1,5-a][1,4]diazepine-2-carbonyl)piperidine-4-carboxylic acid]	≤ 100
O=C(O)C1CCCN(C(=O)c2cc3n(n2)CCCN(C(=O)OCc2cc(Cl)cc(Cl)c2)C3)C1 (stereo not drawn) [Example 88, 1-(5-(((3,5-dichlorobenzyl)oxy)carbonyl)-5,6,7,8-tetrahydro-4H-pyrazolo[1,5-a][1,4]diazepine-2-carbonyl)piperidine-3-carboxylic acid]	≤ 250
O=C(O)C1CC2CCCC(C1)N2C(=O)c1cc2n(n1)CCCN(C(=O)CCc1cc(Cl)cc(Cl)c1)C2 (stereo not drawn) [Example 90, 9-(5-(3-(3,5-Dichlorophenyl)propanoyl)-5,6,7,8-tetrahydro-4H-pyrazolo[1,5-a][1,4]diazepine-2-carbonyl)-9-azabicyclo[3.3.1]nonane-3-carboxylic acid]	≤ 100
O=C(O)C1CC2CCCC(C1)N2C(=O)c1cc2n(n1)CCN(C(=O)CCc1cc(Cl)cc(Cl)c1)C2 (stereo not drawn) [Example 92, 9-(5-(3-(3,5-Dichlorophenyl)propanoyl)-4,5,6,7-tetrahydropyrazolo[1,5-a]pyrazine-2-carbonyl)-9-azabicyclo[3.3.1]nonane-3-carboxylic acid]	≤ 100
O=C(O)C1CC2CCC(C1)N2C(=O)c1cc2n(n1)CCN(C(=O)CCc1cc(Cl)cc(Cl)c1)C2 (stereo not drawn) [Example 93, 8-(5-(3-(3,5-Dichlorophenyl)propanoyl)-4,5,6,7-tetrahydropyrazolo[1,5-a]pyrazine-2-carbonyl)-8-azabicyclo[3.2.1]octane-3-carboxylic acid]	≤ 500
O=C(CCc1cc(Cl)cc(Cl)c1)N1CCn2nc(C(=O)N3C4CCCC3CCC4)cc2C1 [Example 94, 1-(2-(9-Azabicyclo[3.3.1]nonane-9-carbonyl)-6,7-dihydropyrazolo[1,5-a]pyrazin-5(4H)-yl)-3-(3,5-dichlorophenyl)propan-1-one]	≤ 100
COC(=O)C1CC2CCCC(C1)N2C(=O)c1cc2n(n1)CCCN(C(=O)OCc1cc(Cl)cc(Cl)c1)C2 (stereo not drawn) [Example 95, 3,5-Dichlorobenzyl 2-(3-(methoxycarbonyl)-9-azabicyclo[3.3.1]nonane-9-carbonyl)-7,8-dihydro-4H-pyrazolo[1,5-a][1,4]diazepine-5(6H)-carboxylate]	≤ 100
O=C(O)C1CC2CCC(C1)N2C(=O)c1cc2n(n1)CCCN(C(=O)OCc1cc(Cl)cc(Cl)c1)C2 (stereo not drawn) [Example 97, 8-(5-(((3,5-Dichlorobenzyl)oxy)carbonyl)-5,6,7,8-tetrahydro-4H-pyrazolo[1,5-a][1,4]diazepine-2-carbonyl)-8-azabicyclo[3.2.1]octane-3-carboxylic acid]	≤ 100
